In patent US5091381A, “2H-1,3,4-benzotriazepin-2-ones” (Biomeasure, Inc., priority 1991, dated 1992):
Like-named read-outs stand apart in the source and are kept apart here.

What was measured:
[1] = tested on: mouse melanoma (B16 F10); assay: Proliferation assay (growth curves), B16 F10; format: cell-based; details: 100 nM, single application
Procedure: (§1) The rat pancreatic tumor cell line (AR42J) was obtained from the American Type Culture Collection. The human colon adenocarcinoma (HT-29) and mouse melanoma (B16 F10) were obtained from the in-house tumor bank. The HT-29 cell line is used to generate the CX-1 tumor in nude mice. All cell lines were propagated in Dulbecco's modified Eagle's medium (DMEM) supplemented with 10% fetal bovine serum (FBS) and incubated in a humidified atmosphere of 90% air/ 10% CO2 at 37° C. These cell lines were maintained at Biomeasure, Inc. and were free of mycoplasma as judged by the indirect (Hoechst) method and the direct (Agar) method.
(§2) Growth Curves--The AR42J and HT-29 cells were plated at 5×10^4 cells per well and the B16 F10 was plated at 1×10^4 cells per well in 24 well tissue cult ure dishes in 1ml of DMEM supplemented with 10% FBS. […] The tissue culture plates were incubated at 37° C. in a humidified atomsphere of 90% air/10% CO2 for up to 8 days. At various times, single cell suspensions were obtained by washing the wells with DMEM, adding 0.5 ml of 0.05% trypsin--0.53 mM EDTA, incubating at 37° C. for 5 min., triturating, and adding 0.5ml of DMEM supplemented with 10% FBS to inhibit the trypsin. The total content of each well was added to Isoton and counted using a Coulter Counter model ZF attached to a Channelizer model 256 to ensure that a uniform single cell population was obtained.

[2] = tested on: rat pancreatic tumor cell line (AR42J); assay: Proliferation assay (growth curves), AR42J; format: cell-based; details: single application
Procedure: as §1, §2

[3] = target: T1, peripheral BZD receptor (Rattus norvegicus, UniProt P16257); assay: Receptor binding assay, peripheral BZD ([3H]RO5-4864 displacement, rat forebrain membranes); details: read-out: BENZODIAZEPINE RECEPTOR BINDING, PERIPHERAL BZD
T1 construct: Crude membranes were prepared by homogenization of a rat forebrain sample; from tissue; host or cells: rat forebrain crude membranes
Procedure: (§3) Crude membranes were prepared by homogenization of a rat forebrain sample in 20 ml of ice-cold 50 mM phosphate buffer (81 mM Na^+, 9 mMK^+) buffer with a Brinkman Polytron (setting 6, 15 sec). Buffer was added to obtain a final volume of 40 ml, and the homogenate was centrifuged in a Sorval SS-34 rotor at 39,000 g for 10 min at 0°-4° C. The resulting supernatant was decanted and discarded. The pellet was rehomogenized in ice-cold buffer, diluted, and centrifuged as before. The final pellet was resuspended in the assay buffer and held on ice for the receptor binding assay.
For the receptor binding assay, aliquots of the membrane preparation were incubated for 90 min at 4° C. in 50 mM phosphate buffer containing 0.5 nM [^3 H]RO-4864 and various concentrations of the unlabeled test compounds. The assay was terminated by rapid filtration through Whatman GF/B filters under vacuum. The filters were washed three times with 5-ml aliquots of ice-cold buffer, and the bound radioactivity trapped on the filters was counted by liquid scintillation spectrometry.
(§4) The inhibition constants (Ki) were calculated from the equation Ki=IC50/(I+L/Kd), where L is the radioligand concentration and Kd is the equilibrium dissociation constant for the radioligand. The IC50 was derived from the inhibition data by linear least squares regression of log (B/Bt-B) versus log I, where I is the test compound concentration, Bt is the total amount of radioligand specifically bound, and B is the amount of specific binding in the presence of a given concentration of the unlabeled test compound. The IC50 is the antilog of log I, when the expression log (B/Bt-B) equals zero.

[4] = tested on: human colon adenocarcinoma (HT-29); assay: Proliferation assay (growth curves), HT-29; format: cell-based
Procedure: as §1, §2

[5] = target: neural BZD (central BZD receptor); assay: Benzodiazepine receptor binding, neural (central) BZD; design: species or system rat
Procedure: as §3, §4

[6] = read-out: BENZODIAZEPINE RECEPTOR BINDING, NEURAL BZD

## CN1C(=O)N(C(=O)c2ccc(F)cc2)N=C(c2ccccc2)c2ccccc21 [BIM-18154]
[1]
  inhibiting the growth of B16 F10 cells: marginally active
[2]
  inhibition of the growth of AR42J cells: did not inhibit
[3]
  Ki: 0.68 nM
[4]; HT-29, day 4, single application
  inhibition of growth: ~35%
[4]; single application
  inhibiting the growth of HT-29 cells: active

## CN1C(=O)N(C(=O)c2ccc(Cl)c(Cl)c2)N=C(c2ccccc2)c2ccccc21 [BIM-18156]
[3]
  Ki: 1.68 nM

## CN1C(=O)N(Cc2ccc(F)cc2)N=C(c2ccccc2)c2ccccc21 [BIM-18268]
[3]
  Ki: 12 nM

## CN1C(=O)N(Cc2ccc(Cl)c(Cl)c2)N=C(c2ccccc2)c2ccccc21 [BIM-18269]
[3]
  Ki: 53 nM

## CN1C(=O)N(C(=O)c2ccc(F)c(F)c2)N=C(c2ccccc2)c2ccccc21 [BIM-18272]
[3]
  Ki: 3.1 nM

## O=C1CN=C(c2ccccc2Cl)c2cc([N+](=O)[O-])ccc2N1 [CLONAZEPAM, clonazepam, reference compound]
[3]
  Ki: 10000 nM
[5]; [6]
  Ki: 0.55 nM

## CN1C(=O)CN=C(c2ccccc2)c2cc(Cl)ccc21 [DIAZEPAM, diazepam]
[5]; read-out: BENZ[…] BINDING, NEURAL BZD
  Ki: 8.4 nM

## CN1C(=O)CN=C(c2ccc(Cl)cc2)c2cc(Cl)ccc21 [RO5-4864]
[5]; [6]
  Ki: 7210 nM
